Experimental data as given in ChEMBL document CHEMBL1201862, “PubChem BioAssay data set” (2004).
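Step 1: Grow cells in 96-well plates. Step 2: Expose to compound for 48 hours at 5 concentrations. Step 3: Interpolate endpoints linearly; if unreached, use highest concentration. At the GI50, growth is halved.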 Activity calls are given as the source filed them. Rule as the data show it: active = GI50 up to about 1.1 µM and inactive = higher.

Tests used:
Assay in all cases: DTP human tumour cell line panel, 48 h
786-0 = test system: 786-0
A549 = test system: A549
ACHN = test system: ACHN
CCRF-CEM = test system: CCRF-CEM
COLO 205 = test system: COLO 205
DLD-1 = test system: DLD-1
DMS-273 = test system: DMS-273
EKVX = test system: EKVX
HCC 2998 = test system: HCC 2998
HCT-116 = test system: HCT-116
HCT-15 = test system: HCT-15
HL-60 = test system: HL-60
HOP-18 = test system: HOP-18
HOP-62 = test system: HOP-62
HOP-92 = test system: HOP-92
HT-29 = test system: HT-29
KM-20L2 = test system: KM-20L2
LOX IMVI = test system: LOX IMVI
LXFL 529 = test system: LXFL 529
M19-MEL = test system: M19-MEL
MOLT-4 = test system: MOLT-4
Malme-3M = test system: Malme-3M
NCI-H226 = test system: NCI-H226
NCI-H23 = test system: NCI-H23
NCI-H460 = test system: NCI-H460
OVCAR-3 = test system: OVCAR-3
OVCAR-5 = test system: OVCAR-5
OVCAR-8 = test system: OVCAR-8
RPMI-8226 = test system: RPMI-8226
RXF 393 = test system: RXF 393
RXF 631 = test system: RXF 631
SF-268 = test system: SF-268
SF-295 = test system: SF-295
SF-539 = test system: SF-539
SK-MEL-28 = test system: SK-MEL-28
SK-MEL-2 = test system: SK-MEL-2
SK-OV-3 = test system: SK-OV-3
SN12C = test system: SN12C
SNB-19 = test system: SNB-19
SNB-75 = test system: SNB-75
SNB-78 = test system: SNB-78
SR = test system: SR
SW-620 = test system: SW-620
TK-10 = test system: TK-10
U-251 = test system: U-251
UACC-257 = test system: UACC-257
UACC-62 = test system: UACC-62
UO-31 = test system: UO-31
XF498 = test system: XF498
A498 = test system: A498
CAKI-1 = test system: CAKI-1
DMS-114 = test system: DMS-114
IGROV-1 = test system: IGROV-1
K562 = test system: K562
KM12 = test system: KM12
M14 = test system: M14
NCI-H522 = test system: NCI-H522
OVCAR-4 = test system: OVCAR-4
SK-MEL-5 = test system: SK-MEL-5

Clc1cc(Cl)cc(Nc2nc3ccccc3nc2-c2cccs2)c1
GI50 (786-0): 17.9 µM (inactive) | GI50 (A549): 38.5 µM (inactive) | GI50 (ACHN): 19.4 µM (inactive) | GI50 (CCRF-CEM): > 100 µM (inactive) | GI50 (COLO 205): 7.23 µM (inactive) | GI50 (DLD-1): 41.4 µM (inactive) | GI50 (DMS-273): 14.2 µM (inactive) | GI50 (EKVX): 41.3 µM (inactive) | GI50 (HCC 2998): 99.3 µM (inactive) | GI50 (HCT-116): 18.5 µM (inactive) | GI50 (HCT-15): > 100 µM | GI50 (HL-60): 25.8 µM (inactive) | GI50 (HOP-18): 28.5 µM (inactive) | GI50 (HOP-62): 40.4 µM (inactive) | GI50 (HOP-92): 12.4 µM (inactive) | GI50 (HT-29): 14 µM (inactive) | GI50 (KM-20L2): > 10 µM (inactive) | GI50 (LOX IMVI): 94.6 µM (inactive) | GI50 (LXFL 529): 35.8 µM (inactive) | GI50 (M19-MEL): 24.2 µM (inactive) | GI50 (MOLT-4): 47.2 µM (inactive) | GI50 (Malme-3M): 39 µM (inactive) | GI50 (NCI-H226): 40 µM (inactive) | GI50 (NCI-H23): 28.8 µM (inactive) | GI50 (NCI-H460): 14.3 µM (inactive) | GI50 (OVCAR-3): 29.1 µM (inactive) | GI50 (OVCAR-5): 83.4 µM (inactive) | GI50 (OVCAR-8): 13.3 µM (inactive) | GI50 (RPMI-8226): 40 µM (inactive) | GI50 (RXF 393): 17.1 µM (inactive) | GI50 (RXF 631): 15.8 µM (inactive) | GI50 (SF-268): 34 µM (inactive) | GI50 (SF-295): 22.1 µM (inactive) | GI50 (SF-539): 36.1 µM (inactive) | GI50 (SK-MEL-28): > 10 µM (inactive) | GI50 (SK-MEL-2): > 100 µM (inactive) | GI50 (SK-OV-3): 31.3 µM (inactive) | GI50 (SN12C): 54.3 µM (inactive) | GI50 (SNB-19): > 10 µM (inactive) | GI50 (SNB-75): 32.4 µM (inactive) | GI50 (SNB-78): 62.5 µM (inactive) | GI50 (SR): 51.2 µM (inactive) | GI50 (SW-620): > 100 µM (inactive) | GI50 (TK-10): 37.9 µM (inactive) | GI50 (U-251): > 10 µM (inactive) | GI50 (UACC-257): 23.7 µM (inactive) | GI50 (UACC-62): > 10 µM (inactive) | GI50 (UO-31): 42.6 µM (inactive) | GI50 (XF498): 28.1 µM (inactive)

COC(=O)C1=C(C(=O)OC)N(C(C)C)[C@H]2C(C(=O)OC)=C(C(=O)OC)N(C(C)C)[C@@H]12
GI50 (786-0): > 100 µM (inactive) | GI50 (A498): > 100 µM (inactive) | GI50 (A549): > 100 µM (inactive) | GI50 (ACHN): > 100 µM (inactive) | GI50 (CAKI-1): > 100 µM (inactive) | GI50 (CCRF-CEM): > 100 µM (inactive) | GI50 (COLO 205): > 100 µM (inactive) | GI50 (DLD-1): > 100 µM (inactive) | GI50 (DMS-114): > 100 µM (inactive) | GI50 (DMS-273): > 100 µM (inactive) | GI50 (EKVX): > 100 µM (inactive) | GI50 (HCT-116): > 100 µM (inactive) | GI50 (HCT-15): > 100 µM | GI50 (HL-60): 61.5 µM (inactive) | GI50 (HOP-18): > 100 µM (inactive) | GI50 (HOP-62): > 100 µM (inactive) | GI50 (HOP-92): > 100 µM (inactive) | GI50 (HT-29): > 100 µM (inactive) | GI50 (IGROV-1): > 100 µM (inactive) | GI50 (K562): > 100 µM (inactive) | GI50 (KM-20L2): > 100 µM (inactive) | GI50 (KM12): > 100 µM (inactive) | GI50 (LOX IMVI): > 100 µM (inactive) | GI50 (LXFL 529): > 100 µM (inactive) | GI50 (M14): > 100 µM (inactive) | GI50 (M19-MEL): > 100 µM (inactive) | GI50 (MOLT-4): 71 µM (inactive) | GI50 (Malme-3M): > 100 µM (inactive) | GI50 (NCI-H226): > 100 µM (inactive) | GI50 (NCI-H23): > 100 µM (inactive) | GI50 (NCI-H460): > 100 µM (inactive) | GI50 (NCI-H522): > 100 µM (inactive) | GI50 (OVCAR-3): 95.1 µM (inactive) | GI50 (OVCAR-4): > 100 µM (inactive) | GI50 (OVCAR-5): > 100 µM (inactive) | GI50 (OVCAR-8): > 100 µM (inactive) | GI50 (RPMI-8226): 84.1 µM (inactive) | GI50 (RXF 393): > 100 µM (inactive) | GI50 (RXF 631): > 100 µM (inactive) | GI50 (SF-268): > 100 µM (inactive) | GI50 (SF-295): > 100 µM (inactive) | GI50 (SF-539): > 100 µM (inactive) | GI50 (SK-MEL-28): > 100 µM (inactive) | GI50 (SK-MEL-2): > 100 µM (inactive) | GI50 (SK-MEL-5): > 100 µM (inactive) | GI50 (SK-OV-3): > 100 µM (inactive) | GI50 (SN12C): > 100 µM (inactive) | GI50 (SNB-19): > 100 µM (inactive) | GI50 (SNB-75): 93.3 µM (inactive) | GI50 (SNB-78): > 100 µM (inactive) | GI50 (SR): 48 µM (inactive) | GI50 (SW-620): > 100 µM (inactive) | GI50 (TK-10): > 100 µM (inactive) | GI50 (U-251): > 100 µM (inactive) | GI50 (UACC-257): > 100 µM (inactive) | GI50 (UACC-62): > 100 µM (inactive) | GI50 (UO-31): > 100 µM (inactive) | GI50 (XF498): > 100 µM (inactive)
